Test results: patent US11739098B2 (BRISTOL-MYERS SQUIBB COMPANY, priority 2017, dated 2023)

Columns and labels:
Format in all cases: cell-based
human TLR7 = target: T1, human TLR7 (Homo sapiens, UniProt Q9NYK1); experiment: TLR7 inhibition reporter assay (HEK-Blue cells, SEAP reporter, gardiquimod stimulation); details: HEK-Blue cells overexpressing human TLR7, SEAP reporter, gardiquimod 7.5 μM
T1 construct: host or cells: HEK-Blue cells (HEK293-derived reporter line)
T1 sequence (Q9NYK1 27-1049): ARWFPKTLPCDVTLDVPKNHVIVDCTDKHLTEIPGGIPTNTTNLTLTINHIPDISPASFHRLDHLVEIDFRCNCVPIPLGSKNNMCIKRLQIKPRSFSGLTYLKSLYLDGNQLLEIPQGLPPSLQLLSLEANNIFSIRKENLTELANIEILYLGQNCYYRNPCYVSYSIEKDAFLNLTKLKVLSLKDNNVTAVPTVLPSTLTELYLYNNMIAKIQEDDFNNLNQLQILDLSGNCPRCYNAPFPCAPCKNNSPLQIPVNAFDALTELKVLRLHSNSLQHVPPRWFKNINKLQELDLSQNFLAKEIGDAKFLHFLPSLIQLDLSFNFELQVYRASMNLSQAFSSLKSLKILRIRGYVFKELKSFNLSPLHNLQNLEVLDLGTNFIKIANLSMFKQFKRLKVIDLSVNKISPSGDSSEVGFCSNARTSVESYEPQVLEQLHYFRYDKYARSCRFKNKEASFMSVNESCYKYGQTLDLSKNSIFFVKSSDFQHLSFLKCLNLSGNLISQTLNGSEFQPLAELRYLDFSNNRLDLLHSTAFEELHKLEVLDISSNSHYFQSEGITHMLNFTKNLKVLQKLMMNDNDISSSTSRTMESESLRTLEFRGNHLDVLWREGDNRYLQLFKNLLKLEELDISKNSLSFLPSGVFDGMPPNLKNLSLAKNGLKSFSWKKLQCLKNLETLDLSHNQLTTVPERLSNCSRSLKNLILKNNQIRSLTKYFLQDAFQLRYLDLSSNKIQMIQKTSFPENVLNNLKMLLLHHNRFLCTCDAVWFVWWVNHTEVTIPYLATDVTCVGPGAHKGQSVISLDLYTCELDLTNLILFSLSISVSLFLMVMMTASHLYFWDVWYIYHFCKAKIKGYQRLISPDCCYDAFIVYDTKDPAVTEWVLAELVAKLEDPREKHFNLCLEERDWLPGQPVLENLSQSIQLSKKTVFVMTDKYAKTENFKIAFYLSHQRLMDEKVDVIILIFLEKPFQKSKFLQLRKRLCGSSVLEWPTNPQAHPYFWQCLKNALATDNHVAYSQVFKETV
Outline: (§1)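 After 22 h at 37 °C, SEAP secretion was measured from human TLR7-, TLR8- or TLR9-expressing HEK-Blue reporter cells given compound (0.05 nM–50 μM) 30 min before agonist: 7.5 μM gardiquimod, 15.9 μM R848 or 5 nM ODN2006 respectively. Percent inhibition referenced to agonist-plus-DMSO and known-inhibitor wells.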

human TLR9 = target: T2, human TLR9 (Homo sapiens, UniProt Q9NR96); experiment: TLR9 inhibition reporter assay (HEK-Blue cells, SEAP reporter, ODN2006 stimulation); details: HEK-Blue cells overexpressing human TLR9, SEAP reporter, ODN2006 5 nM
T2 construct: host or cells: HEK-Blue cells (HEK293-derived reporter line)
T2 sequence (Q9NR96 26-1032): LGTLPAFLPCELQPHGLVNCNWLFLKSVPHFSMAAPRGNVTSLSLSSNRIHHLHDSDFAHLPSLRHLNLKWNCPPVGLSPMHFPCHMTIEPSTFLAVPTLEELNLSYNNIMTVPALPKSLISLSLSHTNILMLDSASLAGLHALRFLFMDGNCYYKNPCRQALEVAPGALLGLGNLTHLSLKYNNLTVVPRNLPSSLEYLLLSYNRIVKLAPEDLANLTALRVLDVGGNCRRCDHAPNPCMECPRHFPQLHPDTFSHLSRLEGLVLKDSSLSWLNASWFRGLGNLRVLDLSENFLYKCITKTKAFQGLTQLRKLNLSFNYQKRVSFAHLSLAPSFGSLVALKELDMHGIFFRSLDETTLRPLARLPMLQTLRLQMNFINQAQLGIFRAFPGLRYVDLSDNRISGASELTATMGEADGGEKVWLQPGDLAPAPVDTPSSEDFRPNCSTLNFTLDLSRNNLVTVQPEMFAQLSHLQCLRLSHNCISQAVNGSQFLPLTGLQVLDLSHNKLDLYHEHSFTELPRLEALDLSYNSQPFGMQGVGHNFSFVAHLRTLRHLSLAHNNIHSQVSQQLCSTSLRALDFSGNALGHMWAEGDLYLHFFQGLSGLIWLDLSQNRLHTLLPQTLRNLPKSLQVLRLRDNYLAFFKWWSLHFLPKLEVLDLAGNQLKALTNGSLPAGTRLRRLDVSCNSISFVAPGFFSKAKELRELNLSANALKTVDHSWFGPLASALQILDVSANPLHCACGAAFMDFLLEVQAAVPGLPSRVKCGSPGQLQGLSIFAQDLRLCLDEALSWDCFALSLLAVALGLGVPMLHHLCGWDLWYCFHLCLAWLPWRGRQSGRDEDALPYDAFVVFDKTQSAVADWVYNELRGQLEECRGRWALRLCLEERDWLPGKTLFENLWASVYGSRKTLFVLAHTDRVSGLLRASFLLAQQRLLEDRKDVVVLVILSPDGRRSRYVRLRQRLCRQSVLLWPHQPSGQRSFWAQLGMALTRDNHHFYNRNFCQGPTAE
Outline: as §1

human TLR8 = target: T3, human TLR8 (Homo sapiens, UniProt Q9NR97); experiment: TLR8 inhibition reporter assay (HEK-Blue cells, SEAP reporter, R848 stimulation); details: HEK-Blue cells overexpressing human TLR8, SEAP reporter, R848 15.9 μM
T3 construct: host or cells: HEK-Blue cells (HEK293-derived reporter line)
T3 sequence (Q9NR97 27-1041): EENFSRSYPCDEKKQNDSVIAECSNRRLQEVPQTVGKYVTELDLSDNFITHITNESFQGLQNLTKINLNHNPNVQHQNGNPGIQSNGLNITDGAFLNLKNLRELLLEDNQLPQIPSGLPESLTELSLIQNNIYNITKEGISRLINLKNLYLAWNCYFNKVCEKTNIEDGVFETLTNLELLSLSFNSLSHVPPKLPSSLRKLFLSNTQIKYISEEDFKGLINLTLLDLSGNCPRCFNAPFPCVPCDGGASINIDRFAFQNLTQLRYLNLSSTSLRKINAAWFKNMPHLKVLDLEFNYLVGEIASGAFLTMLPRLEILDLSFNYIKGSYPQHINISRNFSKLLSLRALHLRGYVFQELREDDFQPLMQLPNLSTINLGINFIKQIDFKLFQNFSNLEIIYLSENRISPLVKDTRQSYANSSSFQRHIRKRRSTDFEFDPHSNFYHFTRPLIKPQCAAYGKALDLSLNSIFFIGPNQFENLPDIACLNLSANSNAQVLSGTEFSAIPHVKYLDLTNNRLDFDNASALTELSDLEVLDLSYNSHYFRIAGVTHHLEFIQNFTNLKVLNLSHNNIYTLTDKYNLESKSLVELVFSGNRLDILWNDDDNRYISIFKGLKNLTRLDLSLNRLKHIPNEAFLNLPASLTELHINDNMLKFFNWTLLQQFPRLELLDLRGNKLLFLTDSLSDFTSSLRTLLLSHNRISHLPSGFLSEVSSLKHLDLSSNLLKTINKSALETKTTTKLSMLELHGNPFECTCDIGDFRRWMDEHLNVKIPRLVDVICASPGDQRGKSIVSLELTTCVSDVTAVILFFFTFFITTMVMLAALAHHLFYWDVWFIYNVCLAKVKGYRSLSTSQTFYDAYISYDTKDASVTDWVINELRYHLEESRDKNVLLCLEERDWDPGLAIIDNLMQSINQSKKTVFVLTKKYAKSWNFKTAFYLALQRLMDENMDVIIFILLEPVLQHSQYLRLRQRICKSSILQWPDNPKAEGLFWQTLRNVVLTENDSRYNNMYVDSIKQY
Outline: as §1

SMILES	IC50 (human TLR7) [nM]	IC50 (human TLR9) [nM]	IC50 (human TLR8) [nM]
CNC(=O)CN1CCC(c2ccc3[nH]c(-c4cc(C)c5c(cnn5C)c4)c(C(C)C)c3c2)CC1 [Example 364, 2-(4-(2-(1,7-dimethyl-1H-indazol-5-yl)-3-isopropyl-1H-indol-5-yl)piperidin-1-yl)-N-methylacetamide]	100 to 1000	1000 to 50000	> 3130
CC(C)c1c(-c2cc(C(F)(F)F)c3nccn3c2)[nH]c2ccc(C3CCNCC3)cc12 [Example 136, 6-(3-isopropyl-5-(piperidin-4-yl)-1H-indol-2-yl)-8-(trifluoromethyl)imidazo[1,2-a]pyridine]	< 100	100 to 1000	< 100
Cc1ccc(-c2[nH]c3ccc(C4CCNCC4)cc3c2C(C)C)c2ncnn12 [Example 152, 8-(3-isopropyl-5-(piperidin-4-yl)-1H-indol-2-yl)-5-methyl-[1,2,4]triazolo[1,5-a]pyridine]	< 100	1000 to 50000	< 100
CC(C)c1c(-c2ccc3ncnn3n2)[nH]c2ccc(C3CCN(CC(C)(C)O)CC3)cc12 [Example 746, 1-(4-(2-([1,2,4]triazolo[1,5-b]pyridazin-6-yl)-3-isopropyl-1H-indol-5-yl)piperidin-1-yl)-2-methylpropan-2-ol]	< 100	1000 to 50000	< 100
COc1c(C)c(-c2[nH]c3ccc(C4CCN(CC(=O)N(C)C)CC4)cc3c2C(C)C)nn2ncnc12 [Example 282, 2-(4-(3-isopropyl-2-(8-methoxy-7-methyl-[1,2,4]triazolo[1,5-b]pyridazin-6-yl)-1H-indol-5-yl)piperidin-1-yl)-N,N-dimethylacetamide]	< 100	1000 to 50000	< 100
Cc1cc(-c2[nH]c3ccc(C4CCNCC4)cc3c2C(C)C)cn2c(C#N)cnc12 [Example 130, 6-(3-isopropyl-5-(piperidin-4-yl)-1H-indol-2-yl)-8-methylimidazo[1,2-a]pyridine-3-carbonitrile]	100 to 1000	1000 to 50000	< 100
CC(=O)N1CCC(N2CCC(c3ccc4[nH]c(-c5ccnc6[nH]ncc56)c(C(C)C)c4c3)CC2)CC1 [Example 823, 1-(4-(3-isopropyl-2-(1H-pyrazolo[3,4-b]pyridin-4-yl)-1H-indol-5-yl)-[1,4′-bipiperidin]-1′-yl)ethan-1-one]	< 100	1000 to 50000	< 100
Cc1cc(-c2[nH]c3ccc(C4CCN(CCS(C)(=O)=O)CC4)cc3c2C(C)C)cc2cnnn12 [Example 795, 5-(3-isopropyl-5-(1-(2-(methylsulfonyl)ethyl)piperidin-4-yl)-1H-indol-2-yl)-7-methyl-[1,2,3]triazolo[1,5-a]pyridine]	< 100	1000 to 50000	< 100
COc1cc(-c2[nH]c3ccc(C4CCN(C5COC5)CC4)cc3c2C(C)C)cc2ncnn12 [Example 710, 7-(3-isopropyl-5-(1-(oxetan-3-yl)piperidin-4-yl)-1H-indol-2-yl)-5-methoxy-[1,2,4]triazolo[1,5-a]pyridine]	< 100	1000 to 50000	< 100
CNC(=O)CN1CCC(c2ccc3[nH]c(-c4cc(C(C)(C)O)c5nccn5c4)c(C(C)C)c3c2)CC1 [Example 342, 2-(4-(2-(8-(2-hydroxypropan-2-yl)imidazo[1,2-a]pyridin-6-yl)-3-isopropyl-1H-indol-5-yl)piperidin-1-yl)-N-methylacetamide]	< 100	100 to 1000	100 to 1000
Cc1cc(-c2[nH]c3ccc(C4CCN(C5CCOCC5)CC4)cc3c2C(C)C)cc2cccnc12 [Example 703, 6-(3-isopropyl-5-(1-(tetrahydro-2H-pyran-4-yl)piperidin-4-yl)-1H-indol-2-yl)-8-methylquinoline]	< 100	1000 to 50000	< 100
CC(C)(O)CC(=O)N1CCC(c2ccc3[nH]c(-c4cc(F)c5nccn5c4)c(CC(F)F)c3c2)CC1 [Example 606, 1-(4-(3-(2,2-difluoroethyl)-2-(8-fluoroimidazo[1,2-a]pyridin-6-yl)-1H-indol-5-yl)piperidin-1-yl)-3-hydroxy-3-methylbutan-1-one]	100 to 1000	1000 to 50000	> 3130
CC(C)c1c(-c2ccnc3[nH]ncc23)[nH]c2ccc(C3CCN(C4CCNCC4)CC3)cc12 [Example 832, 4-(5-([1,4′-bipiperidin]-4-yl)-3-isopropyl-1H-indol-2-yl)-1H-pyrazolo[3,4-b]pyridine]	< 100	100 to 1000	< 100
CNC(=O)CN1CCC(c2ccc3[nH]c(-c4cc(C)c5nc(C)cn5c4)c(C(C)C)c3c2)CC1 [Example 391, 2-(4-(2-(2,8-dimethylimidazo[1,2-a]pyridin-6-yl)-3-isopropyl-1H-indol-5-yl)piperidin-1-yl)-N-methylacetamide]	< 100	100 to 1000	< 100
